Test results from patent US9475841B2, “Melanoma antigen peptide and uses thereof” (INSERM (INSTITUT NATIONAL DE LA SANTE ET DE LA RECHERCHE …, priority 2012, dated 2016).

Columns and labels:
[1] = test system: MELOE-1 specific CD4+ T cells; experiment: MELOE-1 CD4+ T cell responses in PBMC from healthy donors: restimulation of microcultures with overlapping peptides, CD4/TNF-α staining; assay type: cell-based, human; details: for Microcultures containing MELOE-1 specific CD4+ T cells (TNF-α production): positive/tested microcultures
Experimental: PBMC from healthy donors were stimulated with 10 μM of MELOE-1. After 14 days, the presence of CD4 T cells specific for the different regions of MELOE-1 was assessed by restimulating cells with MELOE-12-21, MELOE-111-30, MELOE-118-37 and MELOE-126-46 peptides, followed by CD4/TNF-α double staining and flow cytometry analysis. Between brackets is indicated the mean % of TNF-α producing CD4 T cells, in positive microcultures. NA: not available.
(§1) PBMC from healthy donors or melanoma patients (2·10^5 cells/well) were cultured for 14 days with 10 μM of MELOE-1 whole antigen (46 amino acids) in RPMI medium supplemented with 8% HS, 50 IU/ml of rIL-2 (Chiron, France) and L-Glutamin, in 96-well multiplates. Microcultures were then restimulated individually with each overlapping peptide (MELOE-12-21, MELOE-111-30, MELOE-118-37, MELOE-12646 or MELOE-122-46 for melanoma patients) in the presence of 10 μg/mL brefeldin A for 5 hours and the percentage of CD4^+ specific T cells was assessed by TNF-α, IFN-γ or IL-4 intracellular staining. A negative control without peptide was included in all experiments.
Our purpose was to look for the existence of class II helper epitopes all along MELOE-1 sequence (SEQ ID NO:20), in order to document the immunogenicity of the different regions of this melanoma antigen. We stimulated 2·10^7 PBMC from seven healthy donors with MELOE-1 whole antigen and tested, after a 14-day culture period the presence of CD4 T cells specific for each region of the protein. Microcultures were screened for TNFα production by CD4+ T cells, after restimulation with four MELOE-1 derived overlapping peptides (Table I), in an autopresentation assay. […] On the contrary, the central region 18-37, containing an already described DR11-restricted epitope (24-37) located just at the end of this 20-mer peptide (Rogel et al., 2011), induced specific responses in microcultures deriving from only 2/7 donors (HD9 and HD17, both expressing the DR11 element). In these two donors, we detected 6 and 7% of positive microcultures, containing between 0.6 to 3.7% of TNFα producing CD4 T cells.

[2] = test system: MELOE-1 specific CD4 T cells; experiment: MELOE-1 CD4+ T cell responses in PBMC from melanoma patients: restimulation with peptides, CD4/IFN-γ (Th1) and CD4/IL4 (Th2) staining; assay type: cell-based, human; details: for mean % of cytokine producing CD4 T cells, in positive microcultures (IFN-γ): Th1; for mean % of cytokine producing CD4 T cells, in positive microcultures (IL4): Th2; for Th1 responses (IFN-γ positive microcultures) / Th2 responses (IL4 positive microcultures): positive/tested microcultures
Experimental: PBMC from melanoma patients were stimulated with 10 μM of MELOE-1. After 14 days, the presence of CD4 T cells specific for the different regions of MELOE-1 was assessed by restimulating cells with MELOE-12-21, MELOE-111-30 and MELOE-122-46 peptides, followed by CD4/IFN-γ double staining for the detection of Th1 responses, and by CD4/IL4 double staining for Th2 responses. Between brackets is indicated the mean % of cytokine producing CD4 T cells, in positive microcultures.
as §1
In order to confirm the immunogenicity of each MELOE-1 regions in melanoma patients, we stimulated melanoma patients PBMC with the MELOE-1 whole protein, and tested the reactivity of stimulated lymphocytes towards the three most immunogenic regions: 2-21, 11-30, and 22-46. For this study, instead of challenging microcultures with the 18-37 peptide, that appeared poorly immunogenic, we extended the C-terminus region from 26-46 to 22-46, in order to also detect responses to our previously described HLA-DR11-restricted epitope (24-37). […] We tested the induction of CD4 specific responses from MELOE-1 stimulated PBMC of […] melanoma patients. We documented CD4 responses specific for the central region of MELOE-1 (11-30) for 7/9 patients, whereas responses specific for MELOE-12-21 and MELOE-122-46 were respectively detected in 4/9 and 5/9 patients (Table III). These responses were mainly Th1 responses (IFN-g production) while less frequent Th2 responses specific for the three regions of MELOE-1 were detected in 3/9 patients for MELOE-12-21, 2/9 patients for MELOE-111-30 and 5/9 patients for MELOE-122-46 (Table III). […] Concerning Th2 responses, much less frequent, the C-term region appeared to induce more frequently the growth of IL-4 producing CD4 T cells than the two other regions (FIG. 2A). […] In summary, stimulation of patient's PBMC with MELOE-1 induced Th1 responses specific for diverse epitopes located all along the protein sequence, and among the different regions, the central region (11-30) and the C-term region (22-46) appeared to be especially immunogenic in term of frequency of responses.

TSREQFLPSEGAACPPWHPS [MELOE-111-30]
frequency of positive microcultures compared with the three other regions of MELOE-1 ([1]; all healthy donors, FIG. 1, p<0.0001): significantly higher | mean % of TNF-α producing CD4 T cells, in positive microcultures ([1]; donor HD9): (2.4% ± 1.5) | Microcultures containing MELOE-1 specific CD4+ T cells (TNF-α production) ([1]; donor HD9 (DPβ1*0902/1501, DQβ1*0301, DRβ1*1104/1201)): 13/96 | mean % of TNF-α producing CD4 T cells, in positive microcultures ([1]; donor HD17): (8.2% ± 6.5) | Microcultures containing MELOE-1 specific CD4+ T cells (TNF-α production) ([1]; donor HD17 (DPβ1*0401/0301, DQβ1*0301/0603, DRβ1*1101/1301)): 26/96 | mean % of TNF-α producing CD4 T cells, in positive microcultures ([1]; donor HD22): (3.9% ± 3.3) | Microcultures containing MELOE-1 specific CD4+ T cells (TNF-α production) ([1]; donor HD22 (DPβ1*0401/1101, DQβ1*0202, DRβ1*0701)): 2/96 | mean % of TNF-α producing CD4 T cells, in positive microcultures ([1]; donor HD24): (2% ± 1.4) | Microcultures containing MELOE-1 specific CD4+ T cells (TNF-α production) ([1]; donor HD24 (DPβ1*0401/0101, DQβ1*0501/0602, DRβ1*0101/1501)): 46/96 | mean % of TNF-α producing CD4 T cells, in positive microcultures ([1]; donor HD25): (1.2% ± 0.7) | Microcultures containing MELOE-1 specific CD4+ T cells (TNF-α production) ([1]; donor HD25 (DPβ1*0401/0402, DQβ1*0201, DRβ1*0301)): 3/96 | mean % of TNF-α producing CD4 T cells, in positive microcultures ([1]; donor HD27): (5% ± 3.4) | Microcultures containing MELOE-1 specific CD4+ T cells (TNF-α production) ([1]; donor HD27 (DQβ1*501/0201, DRβ1*0101/0301)): 5/96 | Microcultures containing MELOE-1 specific CD4+ T cells (TNF-α production) ([1]; donor HD28 (DRβ1*0301)): 14/48 | donors in which CD4 responses against the region were detected ([1]; seven healthy donors): each tested donor | Th1 responses, % of tested microcultures ([2]; 576 tested microcultures from melanoma patients, IFN-γ): 10.8% | patients in which Th2 responses were detected ([2]; melanoma patients, IL4): 2/9 | patients in which CD4 responses specific for the region were detected ([2]; melanoma patients, Table III, Th1 (IFN-γ)): 7/9 | mean % of cytokine producing CD4 T cells, in positive microcultures (IFN-γ) ([2]; patient Pt ≠ 1): (1.4% ± 0.7) | mean % of cytokine producing CD4 T cells, in positive microcultures (IL4) ([2]; patient Pt ≠ 1): (1%) | Th1 responses (IFN-γ positive microcultures) ([2]; patient Pt ≠ 1): 10/48 | Th2 responses (IL4 positive microcultures) ([2]; patient Pt ≠ 1): 1/48 | mean % of cytokine producing CD4 T cells, in positive microcultures (IFN-γ) ([2]; patient Pt ≠ 2): (1.6% ± 1.2) | Th1 responses (IFN-γ positive microcultures) ([2]; patient Pt ≠ 2): 16/96 | Th2 responses (IL4 positive microcultures) ([2]; patient Pt ≠ 2): 0/96 | Th1 responses (IFN-γ positive microcultures) ([2]; patient Pt ≠ 3 (DPβ1*0201/2001, DQβ1*0303/0501, DRβ1*0101/0701)): 5/96 | mean % of cytokine producing CD4 T cells, in positive microcultures (IFN-γ) ([2]; patient Pt ≠ 3): (16.2% ± 33.2) | Th2 responses (IL4 positive microcultures) ([2]; patient Pt ≠ 3): 0/96 | mean % of cytokine producing CD4 T cells, in positive microcultures (IFN-γ) ([2]; patient Pt ≠ 4): (0.9% ± 0.5) | Th1 responses (IFN-γ positive microcultures) ([2]; patient Pt ≠ 4): 9/48 | Th2 responses (IL4 positive microcultures) ([2]; patient Pt ≠ 4): 0/48 | mean % of cytokine producing CD4 T cells, in positive microcultures (IFN-γ) ([2]; patient Pt ≠ 5): (1.5% ± 1.1) | Th1 responses (IFN-γ positive microcultures) ([2]; patient Pt ≠ 5): 6/48 | Th2 responses (IL4 positive microcultures) ([2]; patient Pt ≠ 5): 0/48 | mean % of cytokine producing CD4 T cells, in positive microcultures (IFN-γ) ([2]; patient Pt ≠ 6): (1.5% ± 1.9) | Th1 responses (IFN-γ positive microcultures) ([2]; patient Pt ≠ 6): 5/48 | Th2 responses (IL4 positive microcultures) ([2]; patient Pt ≠ 6): 0/48 | Th1 responses (IFN-γ positive microcultures) ([2]; patient Pt ≠ 7): 0/48 | Th2 responses (IL4 positive microcultures) ([2]; patient Pt ≠ 7): 0/48 | mean % of cytokine producing CD4 T cells, in positive microcultures (IFN-γ) ([2]; patient Pt ≠ 8): (2.9% ± 0.04) | Th1 responses (IFN-γ positive microcultures) ([2]; patient Pt ≠ 8): 2/48 | Th2 responses (IL4 positive microcultures) ([2]; patient Pt ≠ 8): 0/48 | mean % of cytokine producing CD4 T cells, in positive microcultures (IL4) ([2]; patient Pt ≠ 9): (0.6% ± 0.09) | Th1 responses (IFN-γ positive microcultures) ([2]; patient Pt ≠ 9): 0/48 | Th2 responses (IL4 positive microcultures) ([2]; patient Pt ≠ 9): 9/48
